Measurements as given in article PMC6002953 (ACS chemical neuroscience, 2017).
Like-named read-outs stand apart in the source and are kept apart here.

Tests used:
human OX2 receptor = target: T1, human OX2 receptor (Homo sapiens, UniProt O43614); assay: Calcium mobilization Ke assay, OX2; format: cell-based; details: for inhibition at 10 µM: read-out: Ke (OX2, nM) column: inhibition at 10 μM final concentration
T1 sequence (O43614 1-444): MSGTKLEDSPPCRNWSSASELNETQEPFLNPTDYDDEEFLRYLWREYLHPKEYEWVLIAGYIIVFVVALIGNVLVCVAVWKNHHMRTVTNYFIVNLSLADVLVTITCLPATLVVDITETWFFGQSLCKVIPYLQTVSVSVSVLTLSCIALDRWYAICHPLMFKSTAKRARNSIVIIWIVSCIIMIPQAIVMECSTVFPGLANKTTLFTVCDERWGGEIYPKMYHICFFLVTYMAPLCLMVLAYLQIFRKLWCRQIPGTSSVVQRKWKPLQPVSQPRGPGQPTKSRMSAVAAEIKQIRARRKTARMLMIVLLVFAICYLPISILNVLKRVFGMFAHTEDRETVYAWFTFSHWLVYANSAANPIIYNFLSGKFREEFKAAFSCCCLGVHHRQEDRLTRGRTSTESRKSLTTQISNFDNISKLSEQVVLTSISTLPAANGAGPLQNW

human OX1 receptor = target: T2, human OX1 receptor (Homo sapiens, UniProt O43613); assay: Calcium mobilization Ke assay, OX1; format: cell-based; details: for OX2/OX1: ratio of Ke values OX2/OX1
T2 sequence (O43613 1-425): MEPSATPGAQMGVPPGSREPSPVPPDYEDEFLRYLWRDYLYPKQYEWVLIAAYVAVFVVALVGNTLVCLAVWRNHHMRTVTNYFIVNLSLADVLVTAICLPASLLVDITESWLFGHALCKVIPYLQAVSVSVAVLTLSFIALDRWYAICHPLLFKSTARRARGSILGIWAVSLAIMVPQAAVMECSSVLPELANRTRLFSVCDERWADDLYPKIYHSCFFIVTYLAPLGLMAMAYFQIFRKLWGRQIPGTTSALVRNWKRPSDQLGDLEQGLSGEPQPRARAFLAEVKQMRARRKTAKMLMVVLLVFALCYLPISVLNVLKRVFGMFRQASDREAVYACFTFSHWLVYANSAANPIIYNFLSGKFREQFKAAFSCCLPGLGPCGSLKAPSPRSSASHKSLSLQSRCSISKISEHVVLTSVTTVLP

OX1 = details: cited from earlier work
[1] = Ke (OX1, nM), compound appeared insurmountable during standard assay procedure, incubation increased to 1 hour

Row | SMILES | inhibition at 10 µM (human OX2 receptor) [%] | Kd (human OX1 receptor) [nM] | OX2/OX1 (human OX1 receptor) | Kd (human OX2 receptor) [nM] | also measured
1 | CCCOc1cc2c(cc1OC)CCN(CC(=O)NCc1ccccc1)C2Cc1ccc2ccccc2c1 (centres unmarked) [Compound 12a, N-Benzyl-2-[6-methoxy-1-(naphthalen-2-ylmethyl)-7-propoxy-1,2,3,4-tetrahydroisoquinolin-2-yl]acetamide] | < 50 | 121 ± 35 | >82.6 |  | 
2 | CCCOc1cc2c(cc1OC)CCN(CC(=O)NCc1ccccc1)C2Cc1ccc(C)c(C)c1 (centres unmarked) [Compound 12b, N-Benzyl-2-{1-[(3,4-dimethylphenyl)methyl]-6-methoxy-7-propoxy-1,2,3,4-tetrahydroisoquinolin-2-yl}acetamide] | < 50 | 28.8 ± 4.4 | >347 |  | 
3 | CCCOc1cc2c(cc1OC)CCN(CC(=O)NCc1ccccc1)C2Cc1ccc(C(C)C)cc1 (centres unmarked) [Compound 12c, N-Benzyl-2-(6-methoxy-1-{[4-(propan-2-yl)phenyl]methyl}-7-propoxy-1,2,3,4-tetrahydroisoquinolin-2-yl)acetamide] | < 50 | 141 ± 42 | >70.9 |  | 
4 | CCCOc1cc2c(cc1OC)CCN(CC(=O)NCc1ccccc1)C2Cc1ccc(N(C)C)cc1 (centres unmarked) [Compound 12d, N-Benzyl-2-(1-{[4-(dimethylamino)phenyl]methyl}-6-methoxy-7-propoxy-1,2,3,4-tetrahydroisoquinolin-2-yl)acetamide] |  | 173 ± 5 | >58 | > 10000 | 
5 | CCCOc1cc2c(cc1OC)CCN(CC(=O)NCc1ccccc1)C2Cc1cccc(N(C)C)c1 (centres unmarked) [Compound 12f, N-Benzyl-2-(1-{[3-(dimethylamino)phenyl]methyl}-6-methoxy-7-propoxy-1,2,3,4-tetrahydroisoquinolin-2-yl)acetamide] | < 50 | 20.6 ± 2.8 | >485 |  | 
6 | CCCOc1cc2c(cc1OC)CCN(CC(=O)NCc1ccccc1)C2Cc1ccc(OCc2ccccn2)c(OC)c1 (centres unmarked) [Compound 12g, N-Benzyl-2-(6-methoxy-1-{[3-methoxy-4-(pyridin-2-ylmethoxy)phenyl]methyl}-7-propoxy-1,2,3,4-tetrahydroisoquinolin-2-yl)acetamide] |  | 96.4 ± 34 | >104 | > 10000 | selectivity over OX2 (human OX1 receptor; OX1 over OX2, calcium mobilization assays): > 100 fold
7 | COc1cc2c(cc1OCC(F)(F)F)C(Cc1ccc3ccccc3c1)N(CC(=O)NCc1cccnc1)CC2 (centres unmarked) [Compound 15a, 2-[6-Methoxy-1-(naphthalen-2-ylmethyl)-7-(2,2,2-trifluoroethoxy)-1,2,3,4-tetrahydroisoquinolin-2-yl]-N-(pyridin-3-ylmethyl)acetamide] |  | 29.5 ± 2.2 | 59 | 1750 ± 230 | 
8 | COc1cc2c(cc1OCC(F)(F)F)C(Cc1ccc(C)c(C)c1)N(CC(=O)NCc1cccnc1)CC2 (centres unmarked) [Compound 15b, 2-{1-[(3,4-Dimethylphenyl)methyl]-6-methoxy-7-(2,2,2-trifluoroethoxy)-1,2,3,4-tetrahydroisoquinolin-2-yl}-N-(pyridin-3-ylmethyl)acetamide] |  | 20.4 ± 2.9 | 67 | 1360 ± 150 | 
9 | COc1cc2c(cc1OCC(F)(F)F)C(Cc1ccccn1)N(CC(=O)NCc1ccccc1)CC2 (centres unmarked) [Compound 19a, N-Benzyl-2-[6-methoxy-1-(pyridin-2-ylmethyl)-7-(2,2,2-trifluoroethoxy)-1,2,3,4-tetrahydroisoquinolin-2-yl]acetamide] | < 50 |  | >11 |  | Kd (human OX1 receptor; [1]): 884 ± 70 nM
10 | COc1cc2c(cc1OCC(F)(F)F)C(Cc1cccnc1)N(CC(=O)NCc1ccccc1)CC2 (centres unmarked) [Compound 19b, N-Benzyl-2-[6-methoxy-1-(pyridin-3-ylmethyl)-7-(2,2,2-trifluoroethoxy)-1,2,3,4-tetrahydroisoquinolin-2-yl]acetamide] | < 50 |  |  |  | Kd (human OX1 receptor; [1]): > 10000 nM
11 | COc1cc2c(cc1OCC(F)(F)F)C(Cc1ccncc1)N(CC(=O)NCc1ccccc1)CC2 (centres unmarked) [Compound 19c, N-Benzyl-2-[6-methoxy-1-(pyridin-4-ylmethyl)-7-(2,2,2-trifluoroethoxy)-1,2,3,4-tetrahydroisoquinolin-2-yl]acetamide] | < 50 |  | >5.4 |  | Kd (human OX1 receptor; [1]): 1860 nM
12 | COc1cc(CC2c3cc(OS(C)(=O)=O)c(OC)cc3CCN2CC(=O)NCc2ccccc2)ccc1OCc1ccccc1 (centres unmarked) [Compound 25a, 2-[(Benzylcarbamoyl)methyl]-1-{[4-(benzyloxy)-3-methoxyphenyl]methyl}-6-methoxy-1,2,3,4-tetrahydroisoquinolin-7-yl methanesulfonate] | < 50 | 43 ± 18 | >232 |  | 
13 | CCCCOc1ccc(CC2c3cc(OS(C)(=O)=O)c(OC)cc3CCN2CC(=O)NCc2ccccc2)cc1OC (centres unmarked) [Compound 25b, 2-[(Benzylcarbamoyl)methyl]-1-[(4-butoxy-3-methoxyphenyl)methyl]-6-methoxy-1,2,3,4-tetrahydroisoquinolin-7-yl methanesulfonate] |  | 5.24 ± 1 | 229 | 1200 | 
14 | COc1cc2c(cc1N)C(Cc1ccc(OC)c(OC)c1)N(CC(=O)NCc1ccccc1)CC2 (centres unmarked) [Compound 33, 2-{7-Amino-1-[(3,4-dimethoxyphenyl)methyl]-6-methoxy-1,2,3,4-tetrahydroisoquinolin-2-yl}-N-benzylacetamide] |  | 494 ± 32 | >20 | > 10000 | 
15 | COc1ccc(CC2c3cc(N(C)C)c(OC)cc3CCN2CC(=O)NCc2ccccc2)cc1OC (centres unmarked) [Compound 34a, N-Benzyl-2-{1-[(3,4-dimethoxyphenyl)methyl]-7-(dimethylamino)-6-methoxy-1,2,3,4-tetrahydroisoquinolin-2-yl}acetamide] |  | 31.2 ± 3.3 | >321 | > 10000 | 
16 | COc1cc2c(cc1NCc1ccccc1)C(Cc1ccc(OC)c(OC)c1)N(CC(=O)NCc1ccccc1)CC2 (centres unmarked) [Compound 34b, N-Benzyl-2-[7-(benzylamino)-1-[(3,4-dimethoxyphenyl)methyl]-6-methoxy-1,2,3,4-tetrahydroisoquinolin-2-yl]acetamide] | < 35 | 352 ± 34 | >28 |  | 
17 | COc1cc2c(cc1NC(C)=O)C(Cc1ccc(OC)c(OC)c1)N(CC(=O)NCc1ccccc1)CC2 (centres unmarked) [Compound 34c, N-Benzyl-2-{1-[(3,4-dimethoxyphenyl)methyl]-7-acetamido-6-methoxy-1,2,3,4-tetrahydroisoquinolin-2-yl}acetamide] |  | 116 ± 44 | >86 | > 10000 | 
18 | COc1cc2c(cc1NS(C)(=O)=O)C(Cc1ccc(OC)c(OC)c1)N(CC(=O)NCc1ccccc1)CC2 (centres unmarked) [Compound 34d, N-Benzyl-2-{1-[(3,4-dimethoxyphenyl)methyl]-7-methanesulfonamido-6-methoxy-1,2,3,4-tetrahydroisoquinolin-2-yl}acetamide] |  | 128 ± 13 | >78 | > 10000 | 
19 | CCCC(=O)Nc1cc2c(cc1OC)CCN(CC(=O)NCc1ccccc1)C2Cc1ccc(OC)c(OC)c1 (centres unmarked) [Compound 34e, N-{2-[(Benzylcarbamoyl)methyl]-1-[(3,4-dimethoxyphenyl)methyl]-6-methoxy-1,2,3,4-tetrahydroisoquinolin-7-yl}butanamide] |  | 689 ± 73 | >14.5 | > 10000 | 
20 | COC(=O)Nc1cc(CC2c3cc(NC(=O)OC)c(OC)cc3CCN2CC(=O)NCc2ccccc2)ccc1OC (centres unmarked) [Compound 38, Methyl N-{2-[(Benzylcarbamoyl)methyl]-6-methoxy-1-({4-methoxy-3-[(methoxycarbonyl)amino]phenyl}methyl)-1,2,3,4-tetrahydroisoquinolin-7-yl}carbamate] |  | > 10000 |  | 592 ± 170 | 
21 | COc1ccc(CC2c3cc(N(C)C)c(OC)cc3CCN2CC(=O)NCc2ccccc2)cc1N(C)C (centres unmarked) [Compound 39, N-Benzyl-2-[7-(dimethylamino)-1-{[3-(dimethylamino)-4-methoxyphenyl]methyl}-6-methoxy-1,2,3,4-tetrahydroisoquinolin-2-yl]acetamide] |  | 7.6 ± 2.8 | 113 | 857 ± 220 | 
22 | COc1cc2c(cc1N(C)C)C(Cc1cccc(N(C)C)c1)N(CC(=O)NCc1ccccc1)CC2 (centres unmarked) [Compound 42, N-Benzyl-2-[7-(dimethylamino)-1-{[3-(dimethylamino)phenyl]methyl}-6-methoxy-1,2,3,4-tetrahydroisoquinolin-2-yl]acetamide] |  | 148 ± 36 | 9.1 | 1360 | 
23 | Cc1nc2ccc(NC(=O)Nc3ccnc4cccnc34)cc2o1 [SB334867] |  |  |  |  | selectivity over OX2 (OX1): 50 ×; selectivity over OX2 (OX1; listed as 3): ~ 50 ×; IC50 (OX1; read-out: IC50 (OX1), commonly used OX1 antagonist): 40 nM
